In the supplement of paper PMC4862054:

Experiments:
Assay in all cases: normalised viability (% of control), CellTiter-Blue; higher = more viable cells (about 100 = DMSO control)
DU-4475 [1] = conditions: 3000 nM; incubation time: 72 h
Protocol: (§1)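 DSRT, CellTiter-Blue viability, 72 h incubation. Signal is normalised to DMSO and benzethonium chloride controls. Value is the normalised response at dose 8.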

HDQ-P1 [2] = conditions: 3000 nM; incubation time: 72 h
Protocol: as §1

CAL-51 [3] = conditions: 3000 nM; incubation time: 72 h
Protocol: as §1

CAL-85-1 [4] = conditions: 3000 nM; incubation time: 72 h
Protocol: as §1

MDA-MB-453 [5] = conditions: 3000 nM; incubation time: 72 h
Protocol: as §1

CAL-148 [6] = conditions: 3000 nM; incubation time: 72 h
Protocol: as §1

DU-4475 [7] = conditions: incubation time: 72 h
Procedure, shortened: (§2)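 Compound dissolved in 5 µl medium was pre-loaded into 384-well plates, and breast cancer cell lines in 20 µl suspension were seeded on top and incubated 72 h. After adding 2.5 µl CellTiter-Blue reagent for 2 h at 37 °C, fluorescence was read at 560/590 nm. Plates were normalised to vehicle (100) and a positive kill control (0), with Z'-factor quality control. Each value is normalised viability at a single listed concentration from the series.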

Hs578T = conditions: incubation time: 72 h
Procedure, shortened: as §2

HCC1599 = conditions: incubation time: 72 h
Procedure, shortened: as §2

MDA-MB-436 = conditions: incubation time: 72 h
Procedure, shortened: as §2

MDA-MB-231 = conditions: incubation time: 72 h
Procedure, shortened: as §2

HCC1143 = conditions: incubation time: 72 h
Procedure, shortened: as §2

SK-BR-3 = conditions: incubation time: 72 h
Procedure, shortened: as §2

CAL-120 = conditions: incubation time: 72 h
Procedure, shortened: as §2

HDQ-P1 [8] = conditions: incubation time: 72 h
Procedure, shortened: as §2

BT-549 = conditions: incubation time: 72 h
Procedure, shortened: as §2

MDA-MB-468 = conditions: incubation time: 72 h
Procedure, shortened: as §2

BT-474 = conditions: incubation time: 72 h
Procedure, shortened: as §2

CAL-51 [9] = conditions: incubation time: 72 h
Procedure, shortened: as §2

CAL-85-1 [10] = conditions: incubation time: 72 h
Procedure, shortened: as §2

MDA-MB-453 [11] = conditions: incubation time: 72 h
Procedure, shortened: as §2

MFM-223 = conditions: incubation time: 72 h
Procedure, shortened: as §2

CAL-148 [12] = conditions: incubation time: 72 h
Procedure, shortened: as §2

CAL-85-1 [13] = conditions: 300 nM; incubation time: 72 h
Protocol: (§3)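 DSRT, CellTiter-Blue viability, 72 h incubation. Signal is normalised to DMSO and benzethonium chloride controls. Value is the normalised response at dose 6.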

MDA-MB-453 [14] = conditions: 300 nM; incubation time: 72 h
Protocol: as §3

CAL-148 [15] = conditions: 300 nM; incubation time: 72 h
Protocol: as §3

CCCS(=O)(=O)Nc1ccc(F)c(C(=O)c2c[nH]c3ncc(-c4ccc(Cl)cc4)cc23)c1F [Vemurafenib]
Conditions | normalised viability [%]
CAL-51 [3] | 107
CAL-85-1 [4] | 75.7
CAL-85-1 [13] | 87.4
CAL-148 [6] | 89.1
CAL-148 [15] | 90.3
DU-4475 [1] | 4.66
HDQ-P1 [2] | 83.1
MDA-MB-453 [5] | 87.3
MDA-MB-453 [14] | 88.7

normalised viability [%]
Conditions | 3 nM | 10 nM | 30 nM | 100 nM | 1000 nM | 10000 nM
BT-474 | – | 106 | – | – | 120 | 107
BT-549 | – | 96.4 | – | – | 105 | 57.3
CAL-51 [9] | 102 | – | 95.4 | 92.9 | – | –
CAL-85-1 [10] | 92.8 | – | 84.6 | 87.2 | – | –
CAL-120 | – | 92.6 | – | – | 91.8 | 71.7
CAL-148 [12] | 95.2 | – | 97.3 | 98.3 | – | –
DU-4475 [7] | 94.5 | – | 85.1 | 68.2 | – | –
HCC1143 | – | 95.8 | – | – | 102 | 87.4
HCC1599 | – | 77.6 | – | – | 87.6 | 90.9
HDQ-P1 [8] | 92.9 | – | 105 | 106 | – | –
Hs578T | – | 112 | – | – | 129 | 45.9
MDA-MB-231 | – | 91.5 | – | – | 92.4 | 100
MDA-MB-436 | – | 104 | – | – | 97.3 | 78.1
MDA-MB-453 [11] | 96.5 | – | 93.1 | 80.1 | – | –
MDA-MB-468 | – | 113 | – | – | 107 | 63.5
MFM-223 | – | 87.9 | – | – | 95.4 | 85.6
SK-BR-3 | – | 88.5 | – | – | 93.8 | 95
